Reference: ChEMBL document CHEMBL1201862, “PubChem BioAssay data set” (2004)
Structures can show the parent of a compound that is named as a salt.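 Dose response: 5 concentrations. Exposure: 48 h. Format: 96-well plates. Endpoint: linear interpolation; highest concentration if not reached. GI50: concentration for 50% inhibition of growth.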 Activity calls are given as the source filed them. Rule as the data show it: active = GI50 up to about 1.1 µM and inactive = higher.

How the values were obtained:
Experiment in all cases: growth of human tumour cells (NCI), 48 h
A498 = tested on: A498
CAKI-1 = tested on: CAKI-1
HCT-15 = tested on: HCT-15
HOP-92 = tested on: HOP-92
HT-29 = tested on: HT-29
M14 = tested on: M14
NCI-H23 = tested on: NCI-H23
NCI-H460 = tested on: NCI-H460
OVCAR-3 = tested on: OVCAR-3
OVCAR-4 = tested on: OVCAR-4
RXF 393 = tested on: RXF 393
SF-295 = tested on: SF-295
SK-MEL-28 = tested on: SK-MEL-28
SNB-19 = tested on: SNB-19
NCI-H522 = tested on: NCI-H522

| SMILES | GI50 (A498) | GI50 (CAKI-1) | GI50 (HCT-15) [µM] | GI50 (HOP-92) | GI50 (HT-29) | GI50 (M14) | GI50 (NCI-H23) | GI50 (NCI-H460) | GI50 (OVCAR-3) | GI50 (OVCAR-4) | GI50 (RXF 393) | GI50 (SF-295) | GI50 (SK-MEL-28) | GI50 (SNB-19) | GI50 (NCI-H522) |
| --- | --- | --- | --- | --- | --- | --- | --- | --- | --- | --- | --- | --- | --- | --- | --- |
| O=C1CCC(=O)C1=NNc1cc(Cl)cc(Cl)c1 | 15.6 µM (inactive) | > 100 µM (inactive) | 55.8 | > 100 µM (inactive) | > 100 µM (inactive) | > 100 µM (inactive) | > 100 µM (inactive) | 71.8 µM (inactive) | 26.2 µM (inactive) | > 100 µM (inactive) | > 100 µM (inactive) | > 100 µM (inactive) | > 100 µM (inactive) | > 100 µM (inactive) |  |
| O=c1[nH]c(C2CCCCC2)nc2c(Cl)cccc12 | > 100 µM (inactive) | > 100 µM (inactive) | > 100 | > 100 µM (inactive) | > 100 µM (inactive) | > 100 µM (inactive) | > 100 µM (inactive) | > 100 µM (inactive) | > 100 µM (inactive) | > 100 µM (inactive) | > 100 µM (inactive) | > 100 µM (inactive) | > 100 µM (inactive) | > 100 µM (inactive) | > 100 µM (inactive) |
| COC(=O)OCC1OC(N2C(=O)NC(=O)C(I)C2N=[N+]=[N-])CC1OC(=O)OC (centres undefined) |  | > 100 µM (inactive) | > 100 | > 100 µM (inactive) | > 100 µM (inactive) | > 100 µM (inactive) | > 100 µM (inactive) | > 100 µM (inactive) | > 100 µM (inactive) | > 100 µM (inactive) | > 100 µM (inactive) | > 100 µM (inactive) | > 100 µM (inactive) | > 100 µM (inactive) | > 100 µM (inactive) |
| CN(C)c1ccc(/C=c2\sc3nnc(-c4ccco4)n3c2=O)cc1 | > 100 µM (inactive) | > 100 µM (inactive) |  | > 100 µM (inactive) |  | > 100 µM (inactive) | > 100 µM (inactive) | > 100 µM (inactive) | > 100 µM (inactive) | > 100 µM (inactive) | > 100 µM (inactive) | > 100 µM (inactive) | > 100 µM (inactive) | > 100 µM (inactive) | > 100 µM (inactive) |
| O=C1CSc2ccncc2N1 | > 100 µM (inactive) | > 100 µM (inactive) | > 100 |  | > 100 µM (inactive) | > 100 µM (inactive) | > 100 µM (inactive) | > 100 µM (inactive) | > 100 µM (inactive) | > 100 µM (inactive) | > 100 µM (inactive) | > 100 µM (inactive) | > 100 µM (inactive) | 8.93 µM (inactive) |  |
| COc1nc(NC2OC(COC(C)=O)C(OC(C)=O)C(OC(C)=O)C2OC(C)=O)c2c(OC(C)=O)c(C)c(=O)oc2n1 (centres undefined) | 1.75 µM (inactive) | > 100 µM (inactive) | > 100 | > 100 µM (inactive) | > 100 µM (inactive) | > 100 µM (inactive) | > 100 µM (inactive) | 1.67 µM (inactive) | > 100 µM (inactive) | > 100 µM (inactive) | > 100 µM (inactive) | > 100 µM (inactive) |  | > 100 µM (inactive) |  |
| OCC(CO)C1c2cccc3ccc4cccc1c4c23 | > 100 µM (inactive) | > 100 µM (inactive) |  | 80.9 µM (inactive) | > 100 µM (inactive) | > 100 µM (inactive) | > 100 µM (inactive) | > 100 µM (inactive) | > 100 µM (inactive) | > 100 µM (inactive) | > 100 µM (inactive) | > 100 µM (inactive) | > 100 µM (inactive) | > 100 µM (inactive) |  |
| Cn1c(=O)c2[nH]cnc2n(CC(=O)O)c1=O | > 100 µM (inactive) | > 100 µM (inactive) | > 100 | > 100 µM (inactive) | > 100 µM (inactive) | > 100 µM (inactive) | > 100 µM (inactive) | > 100 µM (inactive) | > 100 µM (inactive) |  |  |  | > 100 µM (inactive) | > 100 µM (inactive) | > 100 µM (inactive) |
| Nc1nc(NCCO)c(N=O)c(=O)[nH]1 | > 100 µM (inactive) | > 100 µM (inactive) | > 100 | > 100 µM (inactive) | > 100 µM (inactive) | > 100 µM (inactive) |  | > 100 µM (inactive) | > 100 µM (inactive) | > 100 µM (inactive) | > 100 µM (inactive) | > 100 µM (inactive) | > 100 µM (inactive) |  | > 100 µM (inactive) |
| COC1CC(OC)C(O)C(CO)O1 (centres undefined) |  |  | > 100 |  | > 100 µM (inactive) | > 100 µM (inactive) | > 100 µM (inactive) | > 100 µM (inactive) | > 100 µM (inactive) | > 100 µM (inactive) | > 100 µM (inactive) | > 100 µM (inactive) | > 100 µM (inactive) |  | > 100 µM (inactive) |
| CCOC(=O)c1sc2c(C(=O)OCC)n3cc(C)cc(C)c3c2c1O |  | > 100 µM (inactive) |  | 76.4 µM (inactive) | > 100 µM (inactive) | > 100 µM (inactive) | > 100 µM (inactive) | > 100 µM (inactive) | 63.2 µM (inactive) | > 100 µM (inactive) | > 100 µM (inactive) | > 100 µM (inactive) | > 100 µM (inactive) | > 100 µM (inactive) | 80.4 µM (inactive) |
| CCOC(=O)C12CCCC1(O)N(NC(=O)c1ccccc1)C(C)=C2C(=O)OC (centres undefined) | > 100 µM (inactive) | > 100 µM (inactive) | > 100 | > 100 µM (inactive) | > 100 µM (inactive) | > 100 µM (inactive) | > 100 µM (inactive) | > 100 µM (inactive) | > 100 µM (inactive) | > 100 µM (inactive) |  | > 100 µM (inactive) |  | > 100 µM (inactive) | > 100 µM (inactive) |
| CCCNC(=S)NNC(=O)CSc1nc(-c2ccccc2)c(-c2ccccc2)[nH]1 | 77.6 µM (inactive) | 33.3 µM (inactive) | 49.3 | 23.5 µM (inactive) | 42 µM (inactive) | 24.1 µM (inactive) | 76 µM (inactive) | 39.9 µM (inactive) | 28 µM (inactive) | 45.1 µM (inactive) |  | 54.6 µM (inactive) | > 100 µM (inactive) | 88.1 µM (inactive) | 26.7 µM (inactive) |
| COC(=O)/C=C(\C(=O)OC)c1c2c3c(cc(OC)c(OC)c3c3ccccc13)CCN2C |  |  | 22.3 | 44.9 µM (inactive) | 38.5 µM (inactive) | 78.7 µM (inactive) | 42.2 µM (inactive) | 35.9 µM (inactive) | 28.2 µM (inactive) |  | 8.79 µM (inactive) | 78.9 µM (inactive) | 38.3 µM (inactive) | 35.5 µM (inactive) | 23.1 µM (inactive) |
| CC1CC[P+](c2ccccc2)(c2ccccc2)CC1 | > 100 µM (inactive) |  | > 100 |  | 79.3 µM (inactive) | 88.1 µM (inactive) | 72.6 µM (inactive) | > 100 µM (inactive) | 46.2 µM (inactive) |  | > 100 µM (inactive) | > 100 µM (inactive) | > 100 µM (inactive) | 92.3 µM (inactive) | 40.5 µM (inactive) |
| CC/C(=N\NS(=O)(=O)c1ccccc1)c1ccccc1 | > 100 µM (inactive) | > 100 µM (inactive) | > 100 | > 100 µM (inactive) | > 100 µM (inactive) | > 100 µM (inactive) | > 100 µM (inactive) | > 100 µM (inactive) | > 100 µM (inactive) | > 100 µM (inactive) | > 100 µM (inactive) | > 100 µM (inactive) | > 100 µM (inactive) |  |  |
| Cc1cc(C)nc(NS(=O)(=O)c2ccc(NC(=O)c3ccc(Cl)c4c(Nc5ccc(S(=O)(=O)Nc6nc(C)cc(C)n6)cc5)c5ccccc5nc34)cc2)n1 | 23.8 µM (inactive) | 42.3 µM (inactive) | 26.9 | 2.08 µM (inactive) | 31.7 µM (inactive) | 2.64 µM (inactive) | 3.75 µM (inactive) | 17 µM (inactive) | 29.2 µM (inactive) | 11 µM (inactive) | 2.16 µM (inactive) | 25.4 µM (inactive) | 4.28 µM (inactive) | 4.89 µM (inactive) |  |
| COc1cc2[nH]c3c(c2cc1OC)CCN[C@]31CC[C@]2(CC3c4c(cc(OC)c(O)c42)CCN3C)C[C@H]1OC (some centres undefined) | 24.8 µM (inactive) | 34.4 µM (inactive) | 18.8 | 25.8 µM (inactive) | 22.3 µM (inactive) | 15.7 µM (inactive) | 65.5 µM (inactive) | 23.8 µM (inactive) | 21.2 µM (inactive) | 23.8 µM (inactive) | 3.04 µM (inactive) | 20.5 µM (inactive) | 20.2 µM (inactive) | 34.8 µM (inactive) |  |
| CC(C)CC12CC3CCC(CNC1=O)C32C (centres undefined) | > 100 µM (inactive) | > 100 µM (inactive) |  | > 100 µM (inactive) | 72.9 µM (inactive) | > 100 µM (inactive) | > 100 µM (inactive) | > 100 µM (inactive) | > 100 µM (inactive) | > 100 µM (inactive) | > 100 µM (inactive) | > 100 µM (inactive) | > 100 µM (inactive) | > 100 µM (inactive) | > 100 µM (inactive) |
| COC(=O)C1=CO[C@@H](C)[C@@H]2Cn3ccc4c5ccccc5nc-4c3C[C@H]12 [ALSTONINE HYDROCHLORIDE] | > 100 µM (inactive) |  | > 100 | 92.9 µM (inactive) | > 100 µM (inactive) | > 100 µM (inactive) | > 100 µM (inactive) | > 100 µM (inactive) | 87.1 µM (inactive) | > 100 µM (inactive) | > 100 µM (inactive) | > 100 µM (inactive) | > 100 µM (inactive) | > 100 µM (inactive) | 51.6 µM (inactive) |
